Measured values as given in patent US20170290889A1, “METHODS AND COMPOSITIONS FOR TREATING DYSBIOSIS AND GASTROINTESTINAL AND INFLAMMATORY DISORDERS” (New York University, priority 2016, published 2017).

How the values were obtained:
Ascaris spp. = assay: Albendazole deworming of Orang Asli (formalin-ether sedimentation, Kato Katz); format: in vivo, human
Hookworm = assay: as above; format: in vivo, human
T. trichiura = assay: as above; format: in vivo, human
Clostridiales = assay: 16S sequencing of mouse stool / small intestinal microbiota (LEfSe); format: in vivo; conditions: stool of uninfected Nod2−/− mice treated with recombinant cytokine, 16S / LEfSe
[1] = test system: M2 macrophage activation genes; assay: RNA-seq gene expression analysis of small intestinal tissue (ileum) of Nod2−/− mice treated with rIL-13 or PBS; format: in vivo; conditions: for Log2 Fold Change: Nod2−/− mice treated with recombinant IL-13 compared to PBS controls
Text: Mice. Nod2−/−, Rag1−/−, Nod2−/−, and Stat6−/− mice on the C57BL/6 background were previously described and bred onsite in an MNV/Helicobacter-free specific pathogen free (SPF) facility at NYU School of Medicine (6, 23). Wild-type (WT) C57BL/6 mice were purchased from Jackson Laboratory and bred onsite to generate controls for experiments. Bone marrow chimeras were generated by lethally irradiating 8-week old female recipient mice (1100 CGy in two divided doses) followed by intravenous (i.v.) injection of 5×10^6 T cell-depleted bone marrow cells from donor female mice. For anti-CD4 treatment, mice were infected with T. muris and injected intra-peritoneally (IP) with 0.25 mg anti-CD4 (clone GK1.5) or anti-IgG2b isotype control (clone LTF-2) (BioXCell) every 3 days for 21 days and animals were sacrificed on day 21. For anti-IL13 treatment, mice were infected with H. polygyrus and injected IP with 0.15 mg anti-IL13 (clone 1316H) (eBioscience) or anti-IgG1 isotype control (clone 43414) (R&D Systems) starting on day 3 post-infection every 3 days for 12 days and animals were sacrificed on day 12. For recombinant IL-13 and IL-4 experiments, mice were injected IP with a complex of 25 μg of anti-IL13 (eBio1316H) and 5 μg of recombinant IL-13 (Peprotech cat #210-13), or a complex of 25 μg of anti-IL4 (BioXcel) and 5 μg of recombinant IL-4 (Peprotech cat #214-14) for 21 days and mice were sacrificed on day 21.
Gene Expression Analysis. RNA was isolated from one cm of small intestinal tissue (ileum) from Nod2^−/− mice treated with rIL-13 or PBS, or WT mice treated with PBS for normalization. An RNA library was prepared using the TruSeq stranded total RNA, with the RiboZero Gold kit and samples were sequenced on the Illumina HiSeq to generate single-end 50 bp reads. Raw sequencing reads were aligned to the mouse reference genome mm10 and the RefSeq reference transcriptome using TopHat (v2.0.12) with the alignment parameter—library-type fr-firststrand (28). Reads with mappability score (MAPQ) <30 were removed. The total number of filtered reads were counted for each gene using htseq-count with the parameters—stranded=reverse and—mode=union. Singleton genes (i.e. genes with total count <1) were filtered and the resulting count matrix was used for differential analysis using the DESeq2 workflow with default parameters (29, 30). Differential genes with rIL-13 treatment were identified at FDR 10%. Pathway analysis was performed using the DAVID platform as previously described (6).

Bacteroides vulgatus = assay: B. vulgatus colonization (stool, small intestinal tissue) in Nod2−/− mice, reported together with goblet cells; format: in vivo; conditions: Nod2−/− mice injected IP with complex of 5 μg recombinant cytokine and 25 μg anti-cytokine antibody for 21 days
[2] = T. trichiura, post-treatment n=64

CCCSc1ccc2nc(NC(=O)OC)[nH]c2c1 [albendazole]
Cure rate (%) (Ascaris spp.; 20 days): 80.0% | Number of infected persons cured after deworming (Ascaris spp.; 20 days): 8 | range of epg after treatment (Ascaris spp.; after albendazole 3×400 mg): 22-4999 epg | Light-intensity infections after treatment (%) (Ascaris spp.; post-treatment n=64): 3.1% | Light-intensity infections after treatment, number (Ascaris spp.; post-treatment n=64): 2 | Total infections after treatment (%) (Ascaris spp.; post-treatment n=64): 3.1% | Total infections after treatment, number (Ascaris spp.; post-treatment n=64): 2 | Cure rate (%) (Hookworm; 20 days): 96 .3% | Number of infected persons cured after deworming (Hookworm; 20 days): 26 | range of epg after treatment (Hookworm; after albendazole 3×400 mg): 22 epg | Light-intensity infections after treatment (%) (Hookworm; post-treatment n=64): 1.6% | Light-intensity infections after treatment, number (Hookworm; post-treatment n=64): 1 | Total infections after treatment (%) (Hookworm; post-treatment n=64): 1.6% | Total infections after treatment, number (Hookworm; post-treatment n=64): 1 | Cure rate (%) (T. trichiura; T. trichiura, 20 days, albendazole 3 doses, 400 mg/day): 32.9% | range of epg after treatment (T. trichiura; T. trichiura, after albendazole 3×400 mg): 22-2,266 epg | Light-intensity infections after treatment (%) (T. trichiura; [2]): 70.3% | Light-intensity infections after treatment, number (T. trichiura; [2]): 45 | Moderate-intensity infections after treatment (%) (T. trichiura; [2]): 3.1% | Moderate-intensity infections after treatment, number (T. trichiura; [2]): 2 | Total infections after treatment (%) (T. trichiura; [2]): 73.4% | Total infections after treatment, number (T. trichiura; [2]): 47 | Trichuris trichiura egg burden (eggs per gram of feces, Kato-Katz) (T. trichiura; post treatment with Albendazole (3 doses, 400 mg/day)): reduced

B1: rIL-13: recombinant IL-13 (Peprotech cat #210-13), type 2 cytokine, injected IP as complex with anti-IL13 (protein, UniProt P20109 19-131, looked up)
Interleukin-13: APGPVPRSVSLPLTLKELIEELSNITQDQTPLCNGSMVWSVDLAAGGFCVALDSLTNISNCNAIYRTQRILHGLCNRKAPTTVSSLPDTKIEVAHFITKLLSYTKQLFRHGPF
modifications: complexed with anti-IL-13 antibody
notes: recombinant IL-13 (Peprotech cat #210-13), type 2 cytokine, injected IP as complex with anti-IL13
expansion of Clostridiales (Clostridiales): expansion of Clostridiales was also observed | expansion of Clostridiales (Clostridiales; listed as IL-13): induces the expansion of bacteria from the class Clostridia in the GI tract | Log2 Fold Change ([1]; gene Arg1 (NM_007482)): 1.468 | Log2 Fold Change ([1]; gene Ccl8 (NM_021443)): 1.5 | Log2 Fold Change ([1]; gene Cd5l (NM_009690)): 1.504 | Log2 Fold Change ([1]; gene Chi3l3 (NM_009892)): 2.681 | Log2 Fold Change ([1]; gene Ear11 (NM_053113)): 1.698 | Log2 Fold Change ([1]; gene Gm11428 (NM_001081957)): 1.53 | Log2 Fold Change ([1]; gene Retnla (NM_020509)): 1.625 | Log2 Fold Change ([1]; gene Saa3 (NM_011315)): 1.846 | Log2 Fold Change ([1]; gene Serpina3n (NM_009252)): 1.58 | RNA-seq analysis of intestinal tissues: response ([1]; rIL-13 treated Nod2−/− mice): wound healing response characterized by expression of M2 macrophage genes | effect on B. vulgatus and goblet cells (Bacteroides vulgatus): sufficient to reproduce the effect of helminth infection

B2: rIL-4: recombinant IL-4 (Peprotech cat #214-14), type 2 cytokine, injected IP as complex with anti-IL4 (protein, UniProt P07750 21-140, looked up)
Interleukin-4: HIHGCDKNHLREIIGILNEVTGEGTPCTEMDVPNVLTATKNTTESELVCRASKVLRIFYLKHGKTPCLKKNSSVLMELQRLFRAFRCLDSSISCTMNESKSTSLKDFLESLKSIMQMDYS
modifications: complexed with anti-IL-4 antibody
notes: recombinant IL-4 (Peprotech cat #214-14), type 2 cytokine, injected IP as complex with anti-IL4
expansion of Clostridiales (Clostridiales): expansion of Clostridiales was also observed | expansion of Clostridiales (Clostridiales; listed as IL-4): induces the expansion of bacteria from the class Clostridia in the GI tract | effect on B. vulgatus and goblet cells (Bacteroides vulgatus): sufficient to reproduce the effect of helminth infection
